Earlier results, collected in patent publication US8466103B2, “Exendin polypeptide linked to biotin, method for the preparation thereof and pharmaceutical composition comprising the same” (B&L Delipharm, Corp., priority 2008, dated 2013).

Molecular target: Na-dependent multivitamin transport system
Settings: small intestines; read-out: Affinity constant of the transport system for biotin; cited from earlier work

For `O=C(O)CCCC[C@@H]1SC[C@@H]2NC(=O)N[C@@H]21` [biotin], the Kd is given as roughly 2.6 nM.
